Several values for one entry are separate records, joined by “and”; a condition that tells them apart may be missing. Identical values can stand only once.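 Where inhibition never reached the appropriate level, the endpoint shown equals the highest concentration tested. Otherwise, values were interpolated linearly from a five-concentration, 48-hour dose response in 96-well plates. GI50: concentration for 50% inhibition of growth. TGI marks complete inhibition of growth.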
Key:
Test in all cases: NCI-60 cell line screen, 48 h
SK-OV-3 ovarian = tested on: SK-OV-3 ovarian
COLO 205 colon = tested on: COLO 205 colon
KM12 colon = tested on: KM12 colon
SNB-19 CNS = tested on: SNB-19 CNS
SN12C renal = tested on: SN12C renal
OVCAR-4 ovarian = tested on: OVCAR-4 ovarian
SR leukemia = tested on: SR leukemia
K-562 leukemia = tested on: K-562 leukemia
SF-295 CNS = tested on: SF-295 CNS
OVCAR-8 ovarian = tested on: OVCAR-8 ovarian

SMILES	GI50 (SK-OV-3 ovarian)	TGI (SK-OV-3 ovarian)	GI50 (COLO 205 colon)	TGI (COLO 205 colon)	GI50 (KM12 colon)	TGI (KM12 colon)	GI50 (SNB-19 CNS)	TGI (SNB-19 CNS)	GI50 (SN12C renal)	TGI (SN12C renal)	GI50 (OVCAR-4 ovarian)	TGI (OVCAR-4 ovarian)	GI50 (SR leukemia)	TGI (SR leukemia)	GI50 (K-562 leukemia)	TGI (K-562 leukemia)	GI50 (SF-295 CNS)	TGI (SF-295 CNS)	GI50 (OVCAR-8 ovarian)	TGI (OVCAR-8 ovarian)
CN(C)C(=O)c1cc2cnc(Nc3ccc(N4CCNCC4)cn3)nc2n1C1CCCC1	34.8 µM	> 100 µM	1.75 µM	26.5 µM	2.85 µM	32.9 µM	14.2 µM	> 100 µM	13.9 µM	93.6 µM	22.4 µM	86.8 µM	3.21 µM	38.7 µM	17.6 µM	> 100 µM	13.1 µM	42 µM	23.7 µM	89.7 µM
CCOC(=O)c1c(/C=N\Nc2ccccc2)nc2ccccc2c1-c1ccccc1		> 100 µM		53 µM		> 100 µM		> 100 µM		> 100 µM		> 100 µM		61.4 µM		> 100 µM		> 100 µM		> 100 µM
COc1cc(/C=C/C(=O)c2c(-c3ccc(Cl)cc3)nc3sc(C)nn23)cc(OC)c1OC	66.6 µM	> 100 µM	60.8 µM	> 100 µM	21.6 µM	> 100 µM	> 100 µM	> 100 µM	53.9 µM	> 100 µM	31.8 µM	> 100 µM	4.9 µM	> 100 µM	4.49 µM	> 100 µM	30 µM	> 100 µM	5.62 µM	> 100 µM
COc1cc([C@H]2c3cc(O)c(OC)cc3C[C@]3(O)[C@@H]2CO[C@@H]3O)ccc1O		> 100 µM		> 100 µM		> 100 µM		> 100 µM		> 100 µM		> 100 µM		> 100 µM		> 100 µM		> 100 µM		> 100 µM
COc1ccc(C[C@H](N)C(=O)N[C@@H]2[C@@H](CO)OC(n3cnc4c(N(C)C)ncnc43)[C@@H]2O)cc1 (stereo not given in full)		1.5 µM	0.218 µM	0.756 µM	0.363 µM	1.08 µM	0.339 µM	1.71 µM		1.31 µM	0.194 µM	0.926 µM	0.17 µM	1.32 µM	0.293 µM	1.46 µM	0.655 µM	2.21 µM	0.276 µM	1.13 µM
CC(C)(CCc1nc2ccccc2[nH]1)C(=O)O		> 100 µM		> 100 µM		> 100 µM		> 100 µM		> 100 µM		> 100 µM		> 100 µM		> 100 µM		> 100 µM		> 100 µM
O=C(/C=C/N1CCN(c2cccc(Cl)c2)CC1)c1ccc(Cl)cc1	50.9 µM	> 100 µM	36.2 µM	> 100 µM	27.1 µM	69.8 µM	64.9 µM	> 100 µM	24.1 µM	65 µM	> 100 µM	> 100 µM	26.1 µM	59.3 µM	28 µM	> 100 µM	18.6 µM	54.2 µM	34.5 µM	> 100 µM
CCc1c[nH]c2ncnc(N3CC[C@](N)(CNC(=O)c4ccc(F)cc4F)C3)c12	0.973 µM	> 62.1 µM	8.12 µM	> 64.8 µM	1.25 µM	> 100 µM	2.04 µM	> 100 µM	24.2 µM	> 100 µM	53.1 µM	> 100 µM	2.19 µM	> 66.3 µM	> 54.1 µM	> 100 µM	1 µM	> 100 µM	28.2 µM	> 100 µM
O=C(c1ccccc1)c1ccc(N2C(=O)C3C4c5ccccc5C(/C=C/C(=O)c5ccccn5)(c5ccccc54)C3C2=O)cc1 (stereo not given)	> 81.7 µM	> 100 µM	3.72 µM	20.8 µM	1.88 µM	4.39 µM	3.72 µM	> 100 µM	2.73 µM	> 100 µM	4.3 µM	> 100 µM	1.37 µM	> 100 µM	1.77 µM	> 100 µM	2.03 µM	5.07 µM	2.56 µM	> 100 µM
CCOC(=O)C1=C(O)c2c(OC)ccc(OC)c2C(=O)C1=O		> 100 µM		> 100 µM		> 100 µM		> 100 µM		> 100 µM		> 100 µM		> 100 µM		> 100 µM		> 100 µM		> 100 µM
CCCNc1ncnc2c1cnn2C		> 100 µM		> 100 µM		> 100 µM		> 100 µM		> 100 µM		> 100 µM		> 100 µM		> 100 µM		> 100 µM		> 100 µM
NC1CC(n2ccc(=O)[nH]c2=O)OC1C(O)CO (stereo not given)		> 100 µM		> 100 µM		> 100 µM		> 100 µM		> 100 µM		> 100 µM		> 100 µM		> 100 µM		> 100 µM		> 100 µM
O=C(Nc1ccccc1)Oc1ccccc1C1CCCCC1		> 100 µM		30.6 µM		> 100 µM		> 100 µM		41.1 µM		37.3 µM		55.7 µM		50.3 µM		51.2 µM		> 100 µM
Oc1ccc(/C=N/Nc2nnc(N/N=C/c3ccc(O)cc3O)c3ccccc23)c(O)c1	0.552 µM	4.5 µM	0.897 µM	2.96 µM	0.375 µM	0.8 µM and 1.54 µM		7.19 µM	0.507 µM	6.72 µM	0.449 µM	5.31 µM	0.205 µM	0.592 µM and 0.719 µM	0.346 µM		0.173 µM	0.813 µM and 0.597 µM	0.494 µM	
CCOC(=O)C1C(=O)C(=O)N2CCc3c([nH]c4ccccc34)C12 (stereo not given)		> 100 µM		> 100 µM		> 100 µM		> 100 µM		> 100 µM		> 100 µM		> 100 µM		> 100 µM		> 100 µM		> 100 µM
O=NNc1nc(-c2ccccn2)nc2ccccc12		> 100 µM		> 100 µM		> 100 µM		> 100 µM		> 100 µM		> 100 µM		> 100 µM		> 100 µM		> 100 µM		> 100 µM
Cn1ncc2c(c1=O)Nc1ccccc1S2(=O)=O		> 100 µM		> 100 µM		> 100 µM		> 100 µM		> 100 µM		> 100 µM		> 100 µM		> 100 µM		> 100 µM		> 100 µM

— PubChem BioAssay (NCI)
